According to article PMC4942610, “Exploration of acetanilide derivatives of 1-(ω-phenoxyalkyl)uracils as novel inhibitors of Hepatitis C Virus replication” (Scientific Reports, 2016):
Several values for one entry are separate records, joined by “and”; a condition that tells them apart may be missing. Equal entries are not always repeated. Where two headings read alike, the source gives them in different places.

What was measured:
[1] = tested on: HCVcc gt 2a strain JFH-1; test: HCVcc JFH-1 infection of Huh7-J20 reporter cells, second protocol (full life cycle), SEAP dose-response; format: cell-based, Hepatitis C Virus; settings: JFH-1 HCVcc gt2a, 3 d post-infection
[2] = tested on: Huh7-J20 cells
Method: (§3) All the drugs were tested starting from the concentration of 30 μM with 3-fold dilutions.
(§4) Huh7, Huh7-J20 and Huh7-J17 cells were tested for viability in the same conditions described for antiviral assays. Cells grown in a 96-well tissue culture plate in the presence of the drugs or DMSO control were incubated with the WST-1 reagent (Roche) for 3 h as per the manufacturer’s protocol. Cell viability was obtained reading absorbance at 450 nm with PHERAstar (BMG Labtech).

[3] = Cell viability assay (WST-1); settings: human, Huh7-J20 cells
Method: as §3, §4

[4] = tested on: gt1b (isolate Con1) subgenomic I389/NS3-3′/LucUbiMeo/ET replicon; test: gt1b sub-genomic replicon dose-response; format: cell-based, Hepatitis C Virus; settings: Huh7 cells stably harbouring the Con1 replicon, 72 h, luciferase
[5] = tested on: gt3a S52-WT-∆N sub-genomic replicon; test: gt3a sub-genomic replicon dose-response; format: cell-based, Hepatitis C Virus; settings: Huh7.5-SEC14L2 cells electroporated with S52-WT-∆N RNA, 72 h, luciferase
[6] = tested on: HCVcc JFH-1DSGCSL; test: Viral RNA quantification after infection with adaptive mutant JFH-1DSGCSL (Protocol 3), RT-qPCR; format: cell-based, Hepatitis C Virus; settings: 10 μM, Huh7 cells, Protocol 3, 72 h post-infection
Method: To further confirm antiviral activity, we tested Z385, Z387, Z400, and Z401 on a cell culture adaptive derivative HCV JFH-1DSGCSL strain that consistently replicates to high titres. Huh7 cells were infected with HCVcc JFH-1DSGCSL in the presence of drugs as per Protocol 3 described above and RNA was collected 72 h post-infection. Total RNA and the viral RNA were quantified as above.
Figure 5 Antiviral activity on cell-culture adaptive mutant JFH-1DSGCSL. Huh7 cells were infected following the third protocol with adaptive mutant virus and incubated for 3 d with drugs at the concentration of 10 μM. Viral RNA levels and relative SEAP activity were measured as previously described.
Huh7 Lunet-CD81 cells and their control Huh7L- H/EF cells were electroporated with 5 μg of JFH-1 RNA, seeded with drugs in a 12-well tissue culture dish and incubated for 3 d. Cellular RNA was isolated using TRI Reagent (Sigma) following manufacturer’s protocol. RNA quantification from the released viral particles was performed as below following digestion of infected cell medium with RNAse A for 2 h and RNA extraction using the RNeasy kit (Qiagen). HCV RNA quantification was carried out by RT-qPCR using TaqMan probes as reported. Briefly, 250 ng of total RNA were reverse transcribed to obtain cDNA in a 20 μl reaction using TaqMan Reverse Transcription Reagents (Life Technologies) with random hexamers, following manufacturer’s protocol. Reverse transcription was performed at 48 °C for 30 min, followed by 5 min at 85 °C. The qPCR was performed with 1.5 μl of cDNA in a 15 μl reaction mixture (TaqMan Fast Universal PCR Master Mix; Life Technologies) with 250 nM of Fw_primer (5′- […]-3′), 250 nm of Rev_primer (5′-[…]-3′) and 250 nM of TaqMan MGB (minor-groove binding) probe labelled with 6-carboxyfluorescin (5′-FAM-[…]-MGB-3′). Samples were placed in an ABI Fast 7500 instrument (Life Technologies) and were amplified using the following parameters: 95 °C for 5 minutes with cycling parameters set to 95 °C for 3 s and 60 °C for 30 s for 40 cycles. Absolute quantification was carried out using linear regression on a standard curve based on pJFH-1 serial dilution.

[7] = tested on: HCVcc gt 2a strain JFH-1; test: HCVcc entry model (Protocol 1: drug only during pre-treatment and 3 h infection), SEAP; format: cell-based, Hepatitis C Virus; settings: 10 μM, 1 h pre-treatment + 3 h infection, then 72 h without drug
Method: (§1) Reagents and conditions: a) K2CO3, DMF, room temperature, 24 h; b) MeI, NaH, DMF, 0 °C, 4 h. (B,C) Antiviral activity on HCVcc and cell viability. […] Then, inoculum was removed and cells re-fed with fresh medium. After 72 h the infected cell medium was collected and inhibitory effect was determined by measuring SEAP activity (top). Cell viability analysis was performed following same conditions with no viral infection (bottom). The values of DMSO-treated cells are expressed as 100% and those of the drug-treated cells as relative to this DMSO control. Error bars indicate standard error of the means for 3 experiments. (C) Huh7-J20 cells were infected for 3 h with JFH-1 and then treated for 3 d with drugs (10 μM) (post-entry, top) or infected for 3 h in the presence of the drugs, after a pretreatment of 1 h, and then incubated for 3 d maintaining drugs in the medium (full life cycle, centre). SEAP assay was performed on infected cell medium to determine antiviral activity. Data are presented as in (B) above. Cell viability was performed following full life cycle protocol (bottom).
(§2) To assess the effect of compounds on HCV infection, we used three protocols: Protocol 1 where Huh7-J20[23] cells were pre-treated for 1 h and exposed to the cell culture infectious HCV (HCVcc) gt 2a strain JFH-1 in the presence of 10 μM drug or equivalent DMSO (as a vehicle control) for 3 h. […]

[8] = tested on: HCVcc gt 2a strain JFH-1; test: HCVcc post-entry model (Protocol 3: drug added after 3 h infection), SEAP; format: cell-based, Hepatitis C Virus; settings: 10 μM, 3 d
Method: as §1, §2

[9] = tested on: SGR-JFH-luc sub-genomic replicon; format: cell-based, Hepatitis C Virus
[10] = tested on: HCVcc gt 2a strain JFH-1; parameters: method as in Iro et al.[23]; settings: Huh7-J20 reporter cells; ref Iro et al.[23]; cited from earlier work
[11] = tested on: Huh7-J20 cells; settings: cited from earlier work

## O=C(Cn1c(=O)ccn(CCCCCOc2ccccc2)c1=O)Nc1ccc(Oc2ccccc2)cc1 [Z436]
[1]
  IC50: 3.62 µM
[2]
  CC50: 13 µM

## O=C(Cn1c(=O)c(I)cn(CCCCCOc2ccc(Br)cc2)c1=O)Nc1ccc(Oc2ccccc2)cc1 [Z439]
[1]
  IC50: 3.72 µM
[2]
  CC50: 29.7 µM

## O=C(Cn1c(=O)ccn(CCCCCOc2ccc(Br)cc2)c1=O)Nc1ccc(OCc2ccccc2)cc1 [Z377]
[1]
  IC50: 2.98 µM
[2]
  CC50: 18.4 µM

## O=C(Cn1c(=O)ccn(CCCCCOc2ccc(Br)cc2)c1=O)Nc1ccc(Oc2ccccc2)cc1 [Z263]
[1]; Hepatitis C virus, 72 h
  IC50: 3.1 µM
[3]
  CC50 at 3 d: 56.3 µM

## O=C(Cn1c(=O)ccn(CCCCOCc2ccc(Br)cc2)c1=O)Nc1ccc(Oc2ccccc2)cc1 [Z432]
[1]
  IC50: 1.29 µM
[2]
  CC50: 19.2 µM
  increase in cytotoxicity compared to Z263: ~3 fold

## O=C(Cn1c(=O)ccn(CCCCCOc2ccc(-c3ccccc3)cc2)c1=O)Nc1ccc(Oc2ccccc2)cc1 [Z438]
[1]
  IC50: 1.74 µM
[2]
  CC50: 9.6 µM

## O=C(Cn1c(=O)ccn(CCCCCOc2ccc(Br)cc2)c1=O)Nc1ccc(Oc2ccc(F)cc2)cc1 [Z414]
[1]
  IC50: 0.627 µM
[2]
  CC50: 30.5 µM

## N#Cc1ccc(OCCCCCn2ccc(=O)n(CC(=O)Nc3ccc(Oc4ccccc4)cc3)c2=O)cc1 [Z434]
[1]
  IC50: 1.85 µM
[2]
  CC50: 10.5 µM

## O=C(Cn1c(=O)ccn(CCCCCCc2ccccc2)c1=O)Nc1ccc(Oc2ccccc2)cc1 [Z437]
[1]
  IC50: 2.93 µM
[2]
  CC50: 14.7 µM

## O=C(Cn1c(=O)ccn(CCCCCCOc2ccc(Br)cc2)c1=O)Nc1ccc(Oc2ccccc2)cc1 [Z400]
[1]
  IC50: 0.243 µM
[4]
  IC50: 12.6 µM
[5]
  IC50: 1.1 µM
[6]
  reduction of total viral RNA levels: 90%
[2]
  CC50: 66.5 µM

## Cc1ccc(Oc2ccc(NC(=O)Cn3c(=O)ccn(CCCCCOc4ccc(Br)cc4)c3=O)cc2)cc1 [Z413]
[1]
  IC50: 0.315 µM
[2]
  CC50: 27.4 µM

## O=C(Cn1c(=O)ccn(CCCCOc2ccc(Br)cc2)c1=O)Nc1ccc(Oc2ccccc2)cc1 [Z397]
[1]
  IC50: 2.95 µM
[2]
  CC50: 61.1 µM

## O=C(Cn1c(=O)ccn(CCCCCCCCOc2ccc(Br)cc2)c1=O)Nc1ccc(Oc2ccccc2)cc1 [Z401]
[1]
  IC50: 0.092 µM and 0.0924 µM
[7]
  inhibition of virus infection (HCVcc entry) relative to DMSO: 80%
[8]
  antiviral activity post-entry: strongly effective post-entry
[4]
  IC50: 2.2 µM
[5]
  IC50: 0.69 µM
[6]
  reduction of total viral RNA levels: 90%
[9]
  antiviral activity, short treatment, 48 h post transfection: 50%
[2]
  CC50: 22.6 µM

## CN(C(=O)Cn1c(=O)ccn(CCCCCOc2ccc(Br)cc2)c1=O)c1ccc(Oc2ccccc2)cc1 [Z431]
[1]; Hepatitis C virus, 72 h
  IC50: 0.5 µM
[3]
  CC50 at 3 d: 2.67 µM

## O=C(Cn1c(=O)ccn(Cc2ccccc2)c1=O)Nc1ccc(Oc2ccccc2)cc1 [Z176]
[1]; Hepatitis C virus, 72 h
  IC50: 1.34 µM
[3]
  CC50 at 3 d: 17.6 µM

## O=C(Cn1c(=O)ccn(CCCCCOc2cccc(Br)c2)c1=O)Nc1ccc(Oc2ccccc2)cc1 [Z421]
[1]
  IC50: 1.16 µM
[2]
  CC50: 44.6 µM

## O=C(Cn1c(=O)ccn(CCCCCOc2ccc(Br)cc2)c1=O)Nc1ccc(Oc2ccc(Cl)cc2)cc1 [Z385]
[1]
  IC50: 0.585 µM
[4]
  IC50: 6.9 µM
[5]
  IC50: 0.66 µM
[6]
  reduction of total viral RNA levels: 90%
[2]
  CC50: 59.2 µM

## C[C@@]1(O)[C@H](O)[C@@H](CO)O[C@H]1n1cnc2c(N)ncnc21 [2′-C-methyladenosine]
[10]
  IC50: 2 µM
[11]
  CC50: > 30 µM

## Cc1cn(CCCCCOc2ccc(Br)cc2)c(=O)n(CC(=O)Nc2ccc(Oc3ccccc3)cc2)c1=O [Z376]
[2]
  CC50: 69.2 µM

## O=C(Cn1c(=O)ccn(CCCCCOc2ccc(Br)cc2)c1=O)Nc1ccc(C(=O)c2ccccc2)cc1 [Z430]
[1]
  IC50: 0.941 µM
[2]
  CC50: 11.5 µM

## O=C(Cn1c(=O)ccn(CCCCCOc2ccc(Br)cc2)c1=O)Nc1ccc(Cc2ccccc2)cc1 [Z387]
[1]
  IC50: 0.712 µM
[4]
  IC50: 23.3 µM
[5]
  IC50: 0.94 µM
[6]
  reduction of total viral RNA levels: 90%
[2]
  CC50: 132 µM
